BigSolDB 2.1

NC(=O)c1cnccn1
solubility (mole fraction)
Conditions | 278.15 K | 283.15 K | 288.15 K | 293.15 K | 298.15 K | 303.15 K | 308.15 K | 313.15 K | 318.15 K | 323.15 K
in acetone | 0.00249 | 0.00304 | 0.00357 | 0.00424 | 0.00495 | 0.00574 | 0.00674 | 0.00784 | 0.00897 | 0.00975
in acetonitrile | 0.00125 | 0.00162 | 0.00205 | 0.00248 | 0.00294 | 0.00351 | 0.0042 | 0.00497 | 0.0058 | 0.00633
in ethyl acetate | 0.0016 | 0.00219 | 0.0024 | 0.00312 | 0.0035 | 0.00416 | 0.00475 | 0.00581 | 0.00666 | 0.00775
in isopropanol | 0.000619 | 0.000973 | 0.00136 | 0.00181 | 0.00224 | 0.00279 | 0.00365 | 0.00466 | 0.00574 | 0.00692
in methanol | 0.00208 | 0.00265 | 0.00328 | 0.00384 | 0.0047 | 0.00563 | 0.0071 | 0.00828 | 0.01 | –
in n-butanol | 0.000772 | 0.00116 | 0.00148 | 0.00192 | 0.00237 | 0.00309 | 0.00396 | 0.00512 | 0.00623 | 0.00731
in n-propanol | 0.000775 | 0.00123 | 0.00145 | 0.00179 | 0.00245 | 0.00297 | 0.00394 | 0.00503 | 0.00616 | 0.00707
in sec-butanol | 0.00053 | 0.00081 | 0.00108 | 0.0015 | 0.00188 | 0.00252 | 0.00332 | 0.00434 | 0.00564 | 0.00696
in water | 0.00105 | 0.00131 | 0.00168 | 0.00194 | 0.0024 | 0.00284 | 0.00362 | 0.00421 | 0.00521 | 0.006
